US20230390240A1, “METHODS OF TREATMENT” (Board of Supervisors of Louisiana State University and …, priority 2020, published 2023)
Peptide text beside a SMILES is read from it. * marks the point of attachment. Cbz = O=C(OCc1ccccc1)*

How the values were obtained:
[1] = system: fatty acid transport protein 4 (FATP4); assay: Immunoblot analysis of FATP4 in the RPE of mice treated daily with drug; assay type: in vivo, mouse; settings: one-month-old mice treated daily, oral; Ezetimibe 10 mg/kg, Simvastatin 30 mg/kg; vs DMSO
Description: Actin was detected as the loading control.

[2] = system: FATP4 in intestinal cells; settings: animal studies; cited from earlier work
[3] = system: S-opsin in retinal explants; assay: Protease inhibitor assay: immunoblot of S-opsin in retinal explants; assay type: cell-based, mouse; settings: 5 hours
Description: OS, outer segments; ONL, Outer nuclear layer; OPL, outer plexiform layer. Scale bar, 20-μm. (B) Percentage of Sopsin mislocalization estimated by dividing S-opsin immunofluorescence in the OPL by the sum of immunofluorescence in the OPL and OS. Note the decrease in S-opsin mislocalization in KI;Fatp4^−/− mice. (C,D) Immunoblot analysis of S-opsin in retinal explants treated with the indicated concentrations of MG132 (C) or pepstatin A (D). DMSO was used in the MG132 and pepstatin A null controls. Histograms show relative immunoblot intensities of S-opsin in MG132-treated and pepstatin A-treated retinas versus DMSO-treated controls. (E) Representative immunoblot analysis of M-opsin in Triton X-100 (Tx)-soluble and -insoluble retinal fractions separated by ultracentrifugation (right panel). […] (F) Percentages of Tx-soluble and -insoluble Mopsin in WT, KI, and KI;Fatp4^−/− mice are estimated from the immunoblot intensities in (E).
Immunoblot analysis Protein samples were separated by SDS-PAGE and transferred to an Immobilon-P membrane. The membrane was incubated in blocking buffer, primary antibody, and horseradish peroxidase-conjugated anti-rabbit or mouse IgG secondary antibody. Antibodies against RPE65 (63), LRAT (64, 65), FATP4 (66), β-actin, rhodopsin, M-opsin (MilliporeSigma Co.), S-opsin (Santa Cruz Biotechnology) were used as the primary antibodies. Immunoblots were visualized with the ECL Prime Western blotting detection reagent and ImageQuant LAS 4000 (48). Signal intensity of each band was quantified using ImageQuant TL software.
Protease inhibitor assay Eyes were enucleated from euthanized 4-week-old mice, and the corneas and lenses were removed. The neural retinas dissected from the eyecups were maintained in the DMEM-F12 medium (Thermo Fisher Scientific Inc.) supplemented with 10% fetal bovine serum and antibiotics in a 5% CO2 incubator at 37° C. After incubating for 5 hours in the presence of a series of increasing concentrations of MG132 (0˜25 μM) or pepstatin A (0˜30 μM), the retinas were subjected to immunoblot analysis.

[4] = target: T1, mutated RPE65 (R91W KI mice) (Mus musculus, UniProt Q91ZQ5, R91W); settings: cited from earlier work
T1 construct: host or cells: R91W knock-in (KI) mice
T1 sequence (Q91ZQ5 1-533 R91W): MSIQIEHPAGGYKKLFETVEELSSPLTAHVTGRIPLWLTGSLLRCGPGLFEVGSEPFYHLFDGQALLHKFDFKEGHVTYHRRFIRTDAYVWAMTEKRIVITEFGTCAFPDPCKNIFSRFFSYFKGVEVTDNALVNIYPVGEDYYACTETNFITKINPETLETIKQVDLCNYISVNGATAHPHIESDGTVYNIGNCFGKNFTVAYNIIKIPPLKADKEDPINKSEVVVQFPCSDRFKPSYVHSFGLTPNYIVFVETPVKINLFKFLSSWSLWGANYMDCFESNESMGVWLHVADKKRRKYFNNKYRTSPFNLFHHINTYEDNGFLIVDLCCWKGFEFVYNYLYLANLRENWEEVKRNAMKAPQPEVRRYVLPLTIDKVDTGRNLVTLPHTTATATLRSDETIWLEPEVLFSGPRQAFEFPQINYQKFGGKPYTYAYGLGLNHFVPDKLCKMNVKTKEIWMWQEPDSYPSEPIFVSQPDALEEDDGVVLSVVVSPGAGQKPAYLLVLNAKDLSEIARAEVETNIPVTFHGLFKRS

RPE65 isomerase = target: T2, RPE65 isomerase (Homo sapiens, UniProt Q16518); settings: in vitro; cited from earlier work
T2 sequence (Q16518 1-533): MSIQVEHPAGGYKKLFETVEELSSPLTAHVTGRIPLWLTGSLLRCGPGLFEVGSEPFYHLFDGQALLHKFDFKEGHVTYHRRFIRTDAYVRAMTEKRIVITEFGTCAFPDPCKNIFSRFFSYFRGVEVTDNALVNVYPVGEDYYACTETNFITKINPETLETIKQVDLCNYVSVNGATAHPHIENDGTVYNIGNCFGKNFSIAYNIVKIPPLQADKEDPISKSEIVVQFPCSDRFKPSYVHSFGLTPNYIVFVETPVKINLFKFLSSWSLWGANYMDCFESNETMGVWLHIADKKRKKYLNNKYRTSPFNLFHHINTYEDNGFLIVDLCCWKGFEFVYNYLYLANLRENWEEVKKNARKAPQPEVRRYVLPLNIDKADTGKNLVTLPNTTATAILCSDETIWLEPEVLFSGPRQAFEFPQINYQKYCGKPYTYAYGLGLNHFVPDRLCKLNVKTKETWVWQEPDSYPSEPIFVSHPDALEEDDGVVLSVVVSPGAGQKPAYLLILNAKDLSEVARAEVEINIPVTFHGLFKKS

For `O=C1[C@H](CC[C@H](O)c2ccc(F)cc2)[C@@H](c2ccc(O)cc2)N1c1ccc(F)cc1` [Ezetimibe], the “expression levels of FATP4 in the retinal pigment epithelium (RPE)” value [1] is given as “reduced expression levels” and the “expression of FATP4 in intestinal cells” value [2] is given as “markedly reduced expression of FATP4”.

With pepstatin A the “relative amount of S-opsin, increase vs DMSO-treated retinas” value (“relative amount of S-opsin, increase” for short) ([3]; KI retinas, pepstatin A (0~30 μM)) was roughly 55% and the “relative amount of S-opsin, increase” value ([3]; KI;Fatp4−/− retinas, pepstatin A (0~30 μM)) was roughly 43%.

With `CC(C)C[C@@H](C=O)NC(=O)[C@H](CC(C)C)NC(=O)[C@H](CC(C)C)NC(=O)OCc1ccccc1` [MG132] (Cbz-Leu-Leu-Leu-aldehyde) the “relative amount of S-opsin, increase” value ([3]; KI retinas, MG132 (0~25 μM)) was 3 fold and the “relative amount of S-opsin, increase” value ([3]; KI;Fatp4−/− retinas, MG132 (0~25 μM)) was 1.6 fold.

For `O=C(O)CCCc1ccccc1` [4-phenylbutyrate], the “elevation of 11cRAL” value ([4]; KI mice) is given as 96% and the “function of mutated RPE65; preservation of photoreceptors and vision” value ([4]; systemic administration, mouse model of LCA) is given as “could partially rescue the function of mutated RPE65”.

In the case of `CCCCCCCCCCCCCCCCCCCCCCCC(=O)SCCNC(=O)CCNC(=O)[C@H](O)C(C)(C)COP(=O)(O)OP(=O)(O)OC[C@H]1O[C@@H](n2cnc3c(N)ncnc32)[C@H](O)[C@@H]1OP(=O)(O)O` [lignoceroyl (C24:0)-CoA], the “synthesis of 11-cis-retinol (11cROL)” value (RPE65 isomerase) is given as “inhibited the synthesis”.

For `CCCCCCCCCCCCCCCC(=O)SCCNC(=O)CCNC(=O)[C@H](O)C(C)(C)COP(=O)(O)OP(=O)(O)OC[C@H]1O[C@@H](n2cnc3c(N)ncnc32)[C@H](O)[C@@H]1OP(=O)(O)O` [palmitoyl (C16:0)-CoA], the “synthesis of 11-cis-retinol (11cROL)” value (RPE65 isomerase) is given as “promoted the synthesis”.
